Reference: patent publication US7834008B2, “Cyclopropyl derivatives as NK3 receptor antagonists” (H. Lundbeck A/S, priority 2003, dated 2010)

What was measured:
human NK3 receptor = biological target: T1, human NK3 receptor (Homo sapiens, UniProt P29371); assay: Fluorometric Imaging Plate Reader (FLIPR) calcium assay, antagonist test against NKB; assay type: cell-based; conditions: BHK cells stably expressing the human NK3 receptor, EC85 of NKB (app. 1 nM)
T1 construct: expressed in transfected cells
T1 sequence (P29371 1-465): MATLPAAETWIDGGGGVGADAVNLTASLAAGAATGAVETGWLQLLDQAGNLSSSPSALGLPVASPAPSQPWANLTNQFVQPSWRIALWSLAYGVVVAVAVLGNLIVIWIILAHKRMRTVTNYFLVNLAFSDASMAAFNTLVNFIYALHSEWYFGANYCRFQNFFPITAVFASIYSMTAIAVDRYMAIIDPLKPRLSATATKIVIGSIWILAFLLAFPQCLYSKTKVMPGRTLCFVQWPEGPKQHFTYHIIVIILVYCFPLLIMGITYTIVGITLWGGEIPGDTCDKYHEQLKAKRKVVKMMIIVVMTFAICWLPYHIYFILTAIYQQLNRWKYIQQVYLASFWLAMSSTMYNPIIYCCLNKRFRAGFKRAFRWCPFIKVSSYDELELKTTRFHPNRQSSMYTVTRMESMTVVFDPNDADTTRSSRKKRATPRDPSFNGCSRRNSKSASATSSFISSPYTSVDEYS
Experimental: The Fluorometric Imaging Plate Reader (FLIPR) assay: The compounds were analysed for efficacy profile in FLIPR assays similar to assays described in Jerman, J C et al: Eur J Pharmacol. 2001, 414, p 23-30. BHK cells (cf. Example 20) stably expressing the human NK3 receptor were seeded in 100 μl media in black walled clear-base 96-wells plates (Costar) aiming at a confluency of 95-100% at the day of assay. The assay was performed according to the calcium assay kit (Molecular Devices). Briefly, the calcium assay reagent was dissolved in Hanks BSS (HBSS) buffer, pH 7.4 containing 20 mM Hepes and 2.5 mM probinicid. An equal volume (100 μl) of the calcium assay reagent solution was added to the wells and the plates were incubated for 60 min at 37° C. The plates were subsequently placed in the FLIPR for examination of fluorescence.
Compounds were diluted in HBSS buffer containing 20 mM Hepes prior to test. For test of agonist activity 50 μl of compound was added to the wells and the plates were analysed for 3 minutes in the FLIPR. For test of antagonist activity, 25 μl of compound was added to the wells and the plate was analysed for a 5 minute period. Subsequently, the wells were added 25 μl of an EC85 (final concentration) of NKB (app. 1 nM) previously determined from a dose-response curve with NKB. The plates were subsequently read for 3 minutes before termination. As controls, selected wells on all plates were added only 100 nM of the NK3 receptor agonist NKB or 2 μM of the calcium ionophor ionomycin. The maximal increase in fluorescence over background following each ligand addition was determined and analysed.

[1] = in particular positive symptoms; cited from earlier work

Molecule	inhibition of the NKB-mediated activation of the NK3 receptor (human NK3 receptor)	effect against schizophrenia [1]
CC(=O)N1CC2(CCN(C[C@@H]3C[C@@]3(C(=O)N(C)Cc3ccc(F)cc3)c3ccc(F)cc3)CC2)c2cc(F)ccc21 [Compound 32a]	inhibited the NKB-mediated activation of the NK3 receptor	
CC(=O)N1CC2(CCN(C[C@@H]3C[C@@]3(C(=O)N(C)Cc3ccc(F)cc3)c3ccccc3)CC2)c2ccccc21 [Compound 23a]	inhibited the NKB-mediated activation of the NK3 receptor	
(1S,2R)-1-(3,4-Difluoro-phenyl)-2-[4-phenyl-4-(piperidine-1-carbonyl)-piperidin-1-ylmethyl]-cyclopropanecarboxylic acid-methyl-amide [Compound 33a]	inhibited the NKB-mediated activation of the NK3 receptor	
CN(Cc1ccc(F)cc1)C(=O)[C@@]1(c2ccccc2)C[C@H]1CN1CCC(C(=O)N2CCCCC2)(c2ccccc2)CC1 [Compound 42a, (1S,2R)-1-Phenyl-2-[4-phenyl-4-(piperidine-1-carbonyl)-piperidin-1-ylmethyl]-cyclopropanecarboxylic acid (4-fluoro-benzyl)-methyl-amide]	inhibited the NKB-mediated activation of the NK3 receptor	
CC(=O)NC1(c2ccccc2)CCN(C[C@@H]2C[C@@]2(C(=O)N(C)Cc2ccccc2Cl)c2ccc(Cl)cc2)CC1 [Compound 45a, (1S,2R)-2-(4-Acetylamino-4-phenyl-piperidin-1-ylmethyl)-1-(4-chloro-phenyl)-cyclopropanecarboxylic acid (2-chloro-benzyl)-methyl-amide]	inhibited the NKB-mediated activation of the NK3 receptor	
CC(=O)N(C)C1(c2ccccc2)CCN(CCC[C@]2(c3ccc(Cl)c(Cl)c3)CCCN(C(=O)c3ccccc3)C2)CC1 [SR142801]		has effect against schizophrenia
CC(=O)N1CC2(CCN(C[C@@H]3C[C@@]3(C(=O)N(C)Cc3ccc(F)cc3)c3ccccc3)CC2)c2cc(F)ccc21 [Compound 25a]	inhibited the NKB-mediated activation of the NK3 receptor	
CC(=O)NC1(c2ccccc2)CCN(C[C@@H]2C[C@@]2(C(=O)N(C)Cc2ccc(F)cc2)c2ccc(Cl)cc2)CC1 [Compound 44a, (1S,2R)-2-(4-Acetylamino-4-phenyl-piperidin-1-ylmethyl)-1-(4-chloro-phenyl)-cyclopropanecarboxylic acid (4-fluoro-benzyl)-methyl-amide]	inhibited the NKB-mediated activation of the NK3 receptor	
